# Patent US10189809B2, “SGC stimulators” (Ironwood Pharmaceuticals, Inc., priority 2010, dated 2019)
# Where two headings read alike, the source gives them in different places.
# How the values were obtained:
# [1] = biological target: T1, Human soluble guanylate cyclase enzyme (hsGC) (Homo sapiens (Human), UniProt Q02108+Q02153); experiment: Purified human sGC enzyme synergy assay in the presence of 1 μM sodium nitroprusside (SNP); format: biochemical; conditions: for sGC Enzyme (fold increase at 30 μM with SNP): 30 μM compound; for sGC Enzyme (fold increase at 10 μM with SNP): 10 μM compound
# Procedure: Human soluble guanylate cyclase enzyme (hsGC) obtained from Enzo Inc. (P/N: ALX-201-177) was used to evaluate the activity of test compounds. The assay reactions contained 0.1 M Tris (pH 8.0), 0.5 mg/mL BSA (pH 8.0), 2 mM DTT, 2 mM MgCl2, 300 μM GTP, 1 mM 3-isobutyl-1-methylxanthine (IBMX) and 5 ng human soluble guanylate cyclase enzyme. Test compounds in DMSO were then added (2 μL, 10 or 30 μM final concentration) and incubated (200 μL, 96-well plate format) at 37° C. for 30 minutes. The controls were carried out using 2 μL DMSO. After the 30 minute incubation, the reaction was stopped with the addition of 200 μL of cold methanol. The plate was then centrifuged at 3,200 rpm for 10 minutes at room temperature. Supernatants (200 μL) were collected and transferred to a new 96 well plate for analysis.
# An 8 point cGMP (Sigma-Aldrich P/N: G6129) standard curve was prepared in assay buffer ranging from 0.156-20 μM. Samples for the cGMP standard curve were then diluted with an equal volume of methanol resulting in final cGMP concentrations of 0.078-10 μM.
# The cGMP standard curve was generated using GraphPad Prism Software.
# Calculations: Specific Activity was determined by the amount of cGMP formed (nmoles) per mg of sGC per min. Enzyme “fold-change” was calculated by dividing Specific Activity for test compounds by Specific Activity of DMSO controls.
# Enzyme assays were performed as described above, but was done in the presence of 1 μM sodium nitroprusside (SNP).
# [2] = biological target: T1, Human soluble guanylate cyclase enzyme (hsGC); experiment: Purified human sGC enzyme activity assay; format: biochemical; conditions: for sGC Enzyme (fold increase at 30 μM) / sGC Enzyme (specific activity at 30 μM) / sGC Enzyme (fold increase at 30 μM without SNP): 30 μM compound; for sGC Enzyme (fold increase at 30 μM): without the addition of SNP; for sGC Enzyme (specific activity at 10 μM) / sGC Enzyme (fold increase at 10 μM without SNP): 10 μM compound
# How it was run: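 Values are fold-change of sGC specific activity, nmoles cGMP per mg enzyme per min, relative to DMSO controls. Reactions: 5 ng human enzyme, 300 μM GTP, 1 mM IBMX, 2 mM MgCl2/DTT, 0.1 M Tris pH 8.0, compound 10 or 30 μM final, 37° C for 30 minutes, methanol quench. cGMP read against a 0.078-10 μM final standard curve.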
# [3] = biological target: soluble guanylate cyclase (sGC) (Homo sapiens (Human), UniProt Q02108+Q02153); experiment: sGC-HEK-cGMP assay run with SNP incubation (HEK WC assay); format: cell-based
# How it was run: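 EC50 values derive from concentration-response curves of intracellular cGMP in HEK293 cells, which express sGC endogenously. Compound and sodium nitroprusside were co-incubated 10 min at 37 °C after a 15-min 0.5 mM IBMX step, with 0.1 M HCl lysis and 1% DMSO vehicle.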
# [4] = read-out: HEK WC Assay (% Emax at 10 μM/with 10 uM SNP)
# [5] = read-out: HEK WC Assay (% Emax at 30 μM/with 10 uM SNP)
# [6] = read-out: HEK WC Assay (% Emax at 10 uM/with 10 uM SNP)
# [7] = read-out: HEK WC Assay (% Emax at 30 uM/with 10 uM SNP)
# Chain of soluble guanylate cyclase (sGC) (Q02153 whole entry): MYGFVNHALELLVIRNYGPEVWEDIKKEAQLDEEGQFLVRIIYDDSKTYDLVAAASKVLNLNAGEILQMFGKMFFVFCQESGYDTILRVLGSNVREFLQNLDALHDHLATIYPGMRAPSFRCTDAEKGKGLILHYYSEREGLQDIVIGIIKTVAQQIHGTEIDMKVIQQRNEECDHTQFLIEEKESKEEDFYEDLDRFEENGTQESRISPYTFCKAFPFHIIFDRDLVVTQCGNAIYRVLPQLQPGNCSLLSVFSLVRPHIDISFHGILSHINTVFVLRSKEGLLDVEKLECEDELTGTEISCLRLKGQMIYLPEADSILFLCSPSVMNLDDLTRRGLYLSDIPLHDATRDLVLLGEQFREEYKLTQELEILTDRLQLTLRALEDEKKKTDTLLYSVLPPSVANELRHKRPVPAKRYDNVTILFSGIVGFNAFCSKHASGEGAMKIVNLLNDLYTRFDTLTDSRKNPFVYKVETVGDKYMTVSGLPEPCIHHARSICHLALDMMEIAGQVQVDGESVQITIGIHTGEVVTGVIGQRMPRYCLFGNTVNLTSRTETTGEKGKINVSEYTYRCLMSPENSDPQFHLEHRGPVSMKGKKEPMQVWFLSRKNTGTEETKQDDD
# Chain of soluble guanylate cyclase (sGC) (Q02108 whole entry): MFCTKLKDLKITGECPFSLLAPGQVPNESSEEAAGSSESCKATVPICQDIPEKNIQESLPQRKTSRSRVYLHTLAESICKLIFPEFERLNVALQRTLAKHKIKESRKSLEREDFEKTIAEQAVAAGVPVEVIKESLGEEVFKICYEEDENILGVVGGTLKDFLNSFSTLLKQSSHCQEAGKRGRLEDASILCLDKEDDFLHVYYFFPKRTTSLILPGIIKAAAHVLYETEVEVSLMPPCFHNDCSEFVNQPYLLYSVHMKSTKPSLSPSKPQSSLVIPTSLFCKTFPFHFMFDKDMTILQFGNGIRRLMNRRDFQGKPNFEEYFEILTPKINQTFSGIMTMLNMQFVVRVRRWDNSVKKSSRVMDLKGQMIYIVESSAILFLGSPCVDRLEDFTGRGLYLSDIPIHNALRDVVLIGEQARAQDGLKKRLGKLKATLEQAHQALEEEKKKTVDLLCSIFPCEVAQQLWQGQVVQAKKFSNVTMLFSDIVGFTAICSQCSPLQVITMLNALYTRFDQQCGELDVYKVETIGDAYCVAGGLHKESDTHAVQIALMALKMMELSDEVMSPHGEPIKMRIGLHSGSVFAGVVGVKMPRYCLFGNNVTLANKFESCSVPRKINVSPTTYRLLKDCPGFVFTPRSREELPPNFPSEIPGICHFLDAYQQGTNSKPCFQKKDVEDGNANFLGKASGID
# T1 sequence (Q02153 whole entry): as the sequence (Q02153 whole entry) above
# T1 sequence (Q02108 whole entry): as the sequence (Q02108 whole entry) above
Compound,sGC Enzyme (fold increase at 30 μM with SNP) ([1]; with the addition of SNP),sGC Enzyme (fold increase at 30 μM) [2],"Emax at 10 µM [3, 4] [%]","Emax at 30 µM [3, 5] [%]",sGC Enzyme (fold increase at 10 μM with SNP) ([1]; with 1 μM SNP),sGC Enzyme (fold increase at 30 μM with SNP) ([1]; with 1 μM SNP),sGC Enzyme (specific activity at 10 μM) [2],sGC Enzyme (fold increase at 10 μM without SNP) [2],sGC Enzyme (specific activity at 30 μM) [2],sGC Enzyme (fold increase at 30 μM without SNP) [2],"Emax at 10 µM [3, 6] [%]","Emax at 30 µM [3, 7] [%]"
COC(=O)Nc1c(N)nc(-c2cc(-c3ccccn3)n(Cc3ccccc3F)n2)nc1N [Compound I-89],A (A = no increase to <2 fold increase),A (A = no increase to <2 fold increase),0 to 10,0 to 10,,,,,,,,
Cn1c(=O)[nH]c2nc(-c3cc(-c4nccs4)n(Cc4ccccc4F)n3)nc(N)c21 [Compound I-96],C (C = 5 to <10 fold increase),B (B = 2 to <5 fold increase),20 to 40,20 to 40,,,,,,,,
Cc1ccc(-c2cc(-c3ccccn3)nn2Cc2ccccc2F)cc1 [Compound I-23],,,,,B (B = 2 to <5 fold increase),B (B = 2 to <5 fold increase),C (C = 100 to <200),B (B = 2 to <5 fold increase),D (D = 200 to <500),B (B = 2 to <5 fold increase),0 to 10,0 to 10
Cc1ccc(-c2c(Br)c(-c3ncccn3)nn2Cc2ccccc2F)cc1 [Compound I-58],,,,,B (B = 2 to <5 fold increase),B (B = 2 to <5 fold increase),B (B = 50 to <100),A (A = no increase to <2 fold increase),B (B = 50 to <100),B (B = 2 to <5 fold increase),0 to 10,0 to 10
CCOC(=O)c1cnc(-c2cc(-c3ccon3)n(Cc3ccccc3F)n2)nc1N [Compound I-131],D (D = 10 to <30 fold increase),B (B = 2 to <5 fold increase),60 to 80,40 to 60,,,,,,,,
COc1ccc(-c2cc(-c3ccccn3)nn2Cc2ccccc2F)cc1 [Compound I-40],,,,,A (A = no increase to <2 fold increase),B (B = 2 to <5 fold increase),C (C = 100 to <200),A (A = no increase to <2 fold increase),C (C = 100 to <200),A (A = no increase to <2 fold increase),0 to 10,0 to 10
COC(=O)Nc1c(N)nc(-c2cc(-c3nccs3)n(Cc3ccccc3F)n2)nc1N [Compound I-93],C (C = 5 to <10 fold increase),B (B = 2 to <5 fold increase),10 to 20,20 to 40,,,,,,,,
Cc1ccc(-c2cc(-c3ncccn3)nn2Cc2ccccc2F)cc1 [Compound I-65],,,,,B (B = 2 to <5 fold increase),C (C = 5 to <10 fold increase),B (B = 50 to <100),B (B = 2 to <5 fold increase),C (C = 100 to <200),B (B = 2 to <5 fold increase),0 to 10,0 to 10
CC(=O)Nc1c(N)nc(-c2cc(-c3nccs3)n(Cc3ccccc3F)n2)nc1N [Compound I-94],B (B = 2 to <5 fold increase),A (A = no increase to <2 fold increase),0 to 10,0 to 10,,,,,,,,
"Cl.Nc1cnc(-c2cc(-c3ccon3)n(Cc3ccccc3F)n2)nc1N [Compound I-107, 2-(1-(2-fluorobenzyl)-5-(isoxazol-3-yl)-1H-pyrazol-3-yl)pyrimidine-4,5-diamine hydrochloride]",C (C = 5 to <10 fold increase),B (B = 2 to <5 fold increase),60 to 80,0 to 10,,,,,,,,
Fc1ccccc1Cn1nc(-c2ncccn2)cc1-c1ccc(Cl)s1 [Compound I-91],C (C = 5 to <10 fold increase),B (B = 2 to <5 fold increase),0 to 10,10 to 20,,,,,,,,
"N#Cc1c(-c2ccccn2)nn(Cc2ccccc2F)c1-c1ccccn1 [Compound I-54, 1-(2-fluorobenzyl)-3,5-di(pyridin-2-yl)-1H-pyrazole-4-carbonitrile]",,,,,A (A = no increase to <2 fold increase),A (A = no increase to <2 fold increase),,A (A = no increase to <2 fold increase),,A (A = no increase to <2 fold increase),0 to 10,0 to 10
Fc1ccccc1Cn1nc(-c2ccccn2)c(Br)c1-c1ccccn1 [Compound I-62],,,,,A (A = no increase to <2 fold increase),A (A = no increase to <2 fold increase),B (B = 50 to <100),A (A = no increase to <2 fold increase),B (B = 50 to <100),A (A = no increase to <2 fold increase),0 to 10,0 to 10
"Cc1cccc(-c2cc(-c3ncccn3)n(Cc3ccccc3F)n2)n1 [Compound I-81, 2-(1-(2-fluorobenzyl)-3-(6-methylpyridin-2-yl)-1H-pyrazol-5-yl)pyrimidine]",A (A = no increase to <2 fold increase),A (A = no increase to <2 fold increase),0 to 10,0 to 10,,,,,,,,
"Cc1ccc(-c2c(C#N)c(-c3ncccn3)nn2Cc2ccccc2F)cc1 [Compound I-69, 1-(2-fluorobenzyl)-3-(pyrimidin-2-yl)-5-p-tolyl-1H-pyrazole-4-carbonitrile]",,,,,A (A = no increase to <2 fold increase),A (A = no increase to <2 fold increase),,A (A = no increase to <2 fold increase),,A (A = no increase to <2 fold increase),0 to 10,0 to 10
Nc1nc(-c2cc(-c3ccon3)n(Cc3ccccc3F)n2)ncc1C1CC1 [Compound I-104],C (C = 5 to <10 fold increase),B (B = 2 to <5 fold increase),40 to 60,> 120,,,,,,,,
CS(=O)(=O)c1cnc(-c2cc(-c3ccon3)n(Cc3ccccc3F)n2)nc1N [Compound I-120],C (C = 5 to <10 fold increase),A (A = no increase to <2 fold increase),0 to 10,0 to 10,,,,,,,,
